From patent US10894784B2, “Heteroarylbenzimidazole compounds” (BAYER PHARMA AKTIENGESELLSCHAFT, priority 2015, dated 2021)
pIC50: −log10 of the molar value. Where two headings read alike, the source gives them in different places.

Target: TBK1 (Homo sapiens (Human), UniProt Q9UHD2)
Test: TBK1 low ATP kinase assay (in vitro assay 1)
Assay type: biochemical
[1] = in vitro assay 1, read-out: TBK1 low ATP kinase assay IC50

Chain of TBK1 (Q9UHD2 whole entry): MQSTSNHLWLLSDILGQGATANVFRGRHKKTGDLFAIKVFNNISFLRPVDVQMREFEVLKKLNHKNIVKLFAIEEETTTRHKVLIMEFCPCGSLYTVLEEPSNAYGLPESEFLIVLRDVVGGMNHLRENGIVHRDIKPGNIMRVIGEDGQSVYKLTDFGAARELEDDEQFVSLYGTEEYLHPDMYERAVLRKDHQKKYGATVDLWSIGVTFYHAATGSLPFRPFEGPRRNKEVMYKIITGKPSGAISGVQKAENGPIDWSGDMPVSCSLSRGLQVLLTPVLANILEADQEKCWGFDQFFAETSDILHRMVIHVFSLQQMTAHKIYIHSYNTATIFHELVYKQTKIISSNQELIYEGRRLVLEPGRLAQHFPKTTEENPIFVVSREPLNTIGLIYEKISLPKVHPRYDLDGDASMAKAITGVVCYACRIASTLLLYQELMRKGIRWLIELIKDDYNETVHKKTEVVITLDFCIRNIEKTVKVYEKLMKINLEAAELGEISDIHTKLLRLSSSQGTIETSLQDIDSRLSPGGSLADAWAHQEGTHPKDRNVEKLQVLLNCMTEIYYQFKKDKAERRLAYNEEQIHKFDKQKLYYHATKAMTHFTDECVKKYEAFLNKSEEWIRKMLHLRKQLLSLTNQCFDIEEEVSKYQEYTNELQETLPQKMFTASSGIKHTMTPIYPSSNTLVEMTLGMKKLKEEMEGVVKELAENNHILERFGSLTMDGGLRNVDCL

pIC50 [1]	pIC50 (TBK1 low ATP kinase assay IC50, in vitro assay 1)	SMILES
7.48		COc1cncnc1-c1ccc2nc(Nc3cc(C(C)N4CCN(C(=O)CC5CC5)CC4)ccn3)[nH]c2c1 (single isomer, unassigned) [Example 35.03.02.B, 2-cyclopropyl-1-{4-[(1S or 1R)-1-(2-{[6-(5-methoxypyrimidin-4-yl)-1H-benzimidazol-2-yl]amino}pyridin-4-yl)ethyl]piperazin-1-yl}ethanone]
6.70		COc1cc(-c2ccc3nc(Nc4cc(CN5CCN(C(=O)C6CC6)CC5)ccn4)[nH]c3c2)c(F)cn1 [Example 03.01, cyclopropyl{4-[(2-{[6-(5-fluoro-2-methoxypyridin-4-yl)-1H-benzimidazol-2-yl]amino}pyridin-4-yl)methyl]piperazin-1-yl}methanone]
8.18		Cc1nccc(-c2ccc3nc(Nc4cc(C(C)N5CCN(C(=O)C6CC6)CC5)ccn4)[nH]c3c2)n1 (single isomer, unassigned) [Example 24.05.04.A, cyclopropyl{4-[(1R or 1S)-1-(2-{[6-(2-methylpyrimidin-4-yl)-1H-benzimidazol-2-yl]amino}pyridin-4-yl)ethyl]piperazin-1-yl}methanone]
7.74		COc1cncnc1-c1ccc2nc(Nc3cc(CN4CCN(C(=O)C5CC5)CC4)ccn3)[nH]c2c1 [Example 35.01.02, cyclopropyl{4-[(2-{[6-(5-methoxypyrimidin-4-yl)-1H-benzimidazol-2-yl]amino}pyridin-4-yl)methyl]piperazin-1-yl}methanone]
8.32		CC(c1ccnc(Nc2nc3ccc(-c4cnn(CC5CC5(F)F)c4)cc3[nH]2)c1)N1CCN(C(=O)OC(C)(C)C)CC1 (single isomer, unassigned) [Example 55.01.02, tert-butyl 4-[(1R or 1S)-1-(2-{[6-(1-{[(1R or 1S)-2,2-difluorocyclopropyl]methyl}-1H-pyrazol-4-yl)-1H-benzimidazol-2-yl]amino}pyridin-4-yl)ethyl]piperazine-1-carboxylate]
7.47		Cc1nccc(-c2ccc3nc(Nc4cc(C(C)N5CCN(C(=O)C6CC6)CC5)ccn4)[nH]c3c2)n1 (single isomer, unassigned) [Example 24.05.04.B, cyclopropyl{4-[(1S or 1R)-1-(2-{[6-(2-methylpyrimidin-4-yl)-1H-benzimidazol-2-yl]amino}pyridin-4-yl)ethyl]piperazin-1-yl}methanone]
9.21		CC(c1ccnc(Nc2nc3ccc(-c4cnn(CC5CC5(F)F)c4)cc3[nH]2)c1)N1CCN(C(=O)C2CC2)CC1 (single isomer, unassigned) [Example 55.03.01, cyclopropyl{4-[(1R or 1S)-1-(2-{[6-(1-{[(1R or 1S)-2,2-difluorocyclopropyl]methyl}-1H-pyrazol-4-yl)-1H-benzimidazol-2-yl]amino}pyridin-4-yl)ethyl]piperazin-1-yl}methanone]
9.25		CC(c1ccnc(Nc2nc3ccc(-c4cnn(CC5CC5(F)F)c4)cc3[nH]2)c1)N1CCN(C(=O)C2CC2)CC1 (single isomer, unassigned) [Example 55.03, cyclopropyl{4-[(1R or 1S)-1-(2-{[6-(1-{[(1RS)-2,2-difluorocyclopropyl]methyl}-1H-pyrazol-4-yl)-1H-benzimidazol-2-yl]amino}pyridin-4-yl)ethyl]piperazin-1-yl}methanone]

Second part, the compound before the results:

SMILES	pIC50 [1]	pIC50 (TBK1 low ATP kinase assay IC50, in vitro assay 1)
O=C(C1CC1)N1CCN(Cc2ccnc(Nc3nc4ccc(-c5cc(C6CC6)ncn5)cc4[nH]3)c2)CC1 [Example 76.02, cyclopropyl{4-[(2-{[6-(6-cyclopropylpyrimidin-4-yl)-1H-benzimidazol-2-yl]amino}pyridin-4-yl)methyl]piperazin-1-yl}methanone]	8.03	
COc1c(NC2CC2)ncnc1-c1ccc2nc(Nc3cc(CN4CCN(C(=O)OC(C)(C)C)CC4)ccn3)[nH]c2c1 [Example 108.01, tert-butyl 4-{[2-({6-[6-(cyclopropylamino)-5-methoxypyrimidin-4-yl]-1H-benzimidazol-2-yl}amino)pyridin-4-yl]methyl}piperazine-1-carboxylate]	7.46	
O=C(C1CC1)N1CCN(Cc2ccnc(Nc3nc4ccc(-c5nc(C6CC6)c[nH]5)cc4[nH]3)c2)CC1 [Example 43.03, cyclopropyl{4-[(2-{[6-(4-cyclopropyl-1H-imidazol-2-yl)-1H-benzimidazol-2-yl]amino}pyridin-4-yl)methyl]piperazin-1-yl}methanone]	6.16	
CC(C)(C)OC(=O)N1CCN(Cc2ccnc(Nc3nc4ccc(-c5ccnc(OCC6CC6)n5)cc4[nH]3)c2)CC1 [Example 62.01.01, tert-butyl 4-{[2-({6-[2-(cyclopropylmethoxy)pyrimidin-4-yl]-1H-benzimidazol-2-yl}amino)pyridin-4-yl]methyl}piperazine-1-carboxylate]	7.24	
CC(C)Oc1cc(-c2ccc3nc(Nc4cc(CN5CCN(C(=O)C6CC6)CC5)ccn4)[nH]c3c2)ncn1 [Example 160.03, cyclopropyl(4-{[2-({6-[6-(propan-2-yloxy)pyrimidin-4-yl]-1H-benzimidazol-2-yl}amino)pyridin-4-yl]methyl}piperazin-1-yl)methanone]	8.07	
Cc1nc(-c2ccc3nc(Nc4cc(CN5CCN(C(=O)CC(F)(F)F)CC5)ccn4)[nH]c3c2)cc(N(C)C)n1 [Example 190.02, 1-(4-{[2-({6-[6-(dimethylamino)-2-methylpyrimidin-4-yl]-1H-benzimidazol-2-yl}amino)pyridin-4-yl]methyl}piperazin-1-yl)-3,3,3-trifluoropropan-1-one]	6.06	
CCOc1c(-c2ccncc2OC)ccc2nc(Nc3cc(CN4CCN(C(=O)C5CC5)CC4)ccn3)[nH]c12 [Example 51.03, cyclopropyl{4-[(2-{[7-ethoxy-6-(3-methoxypyridin-4-yl)-1H-benzimidazol-2-yl]amino}pyridin-4-yl)methyl]piperazin-1-yl}methanone]	6.95	
O=C(CC(F)(F)F)N1CCN(Cc2ccnc(Nc3nc4ccc(-c5ccnc(N6CCCC6)n5)cc4[nH]3)c2)CC1 [Example 177.02, 3,3,3-trifluoro-1-(4-{[2-({6-[2-(pyrrolidin-1-yl)pyrimidin-4-yl]-1H-benzimidazol-2-yl}amino)pyridin-4-yl]methyl}piperazin-1-yl)propan-1-one]	7.13	
COc1cnccc1-c1ccc2nc(Nc3cc(CN4CCN(C(=O)CC(F)(F)F)CC4)ccn3)[nH]c2c1OCC(C)C [Example 50.01, 3,3,3-trifluoro-1-{4-[(2-{[6-(3-methoxypyridin-4-yl)-7-(2-methylpropoxy)-1H-benzimidazol-2-yl]amino}pyridin-4-yl)methyl]piperazin-1-yl}propan-1-one]	6.30	
Cc1noc(-c2ccc3nc(Nc4cc(CN5CCN(c6ccc(C(F)(F)F)cn6)CC5)ccn4)[nH]c3c2)n1 [Example 101.08, 6-(3-methyl-1,2,4-oxadiazol-5-yl)-N-[4-({4-[5-(trifluoromethyl)pyridin-2-yl]piperazin-1-yl}methyl)pyridin-2-yl]-1H-benzimidazol-2-amine]	< 4.70	
CC(c1ccnc(Nc2nc3ccc(-c4cc(Cl)ncn4)cc3[nH]2)c1)N1CCN(C(=O)OC(C)(C)C)CC1 (single isomer, unassigned) [Example 85.01, tert-Butyl 4-[(1R or 1S)-1-(2-{[6-(6-chloropyrimidin-4-yl)-1H-benzimidazol-2-yl]amino}pyridin-4-yl)ethyl]piperazine-1-carboxylate]	8.24	
O=C(C1CC1)N1CCN(Cc2ccnc(Nc3nc4ccc(-c5ncnc(NC6CCC6)c5F)cc4[nH]3)c2)CC1 [Example 194.03, (4-{[2-({6-[6-(cyclobutylamino)-5-fluoropyrimidin-4-yl]-1H-benzimidazol-2-yl}amino)pyridin-4-yl]methyl}piperazin-1-yl)(cyclopropyl)methanone]	7.31	
Cc1ncnc(-c2ccc3nc(Nc4cc(CN5CCN(C(=O)C6CC6)CC5)ccn4)[nH]c3c2)c1C [Example 32.01, cyclopropyl{4-[(2-{[6-(5,6-dimethylpyrimidin-4-yl)-1H-benzimidazol-2-yl]amino}pyridin-4-yl)methyl]piperazin-1-yl}methanone]	6.02	
Cc1cc(-c2ccc3nc(Nc4cc(C(C)N5CCN(C(=O)CC(F)(F)F)CC5)ccn4)[nH]c3c2)ncn1 (racemic) [Example 30.02.01, (rac)-3,3,3-trifluoro-1-{4-[1-(2-{[6-(6-methylpyrimidin-4-yl)-1H-benzimidazol-2-yl]amino}pyridin-4-yl)ethyl]piperazin-1-yl}propan-1-one]		8.35
COCc1cc(-c2ccc3nc(Nc4cc(C(C)N5CCN(C(=O)OC(C)(C)C)CC5)ccn4)[nH]c3c2)ncn1 (single isomer, unassigned) [Example 84.01, tert-butyl 4-{(1R or 1S)-1-[2-({6-[6-(methoxymethyl)pyrimidin-4-yl]-1H-benzimidazol-2-yl}amino)pyridin-4-yl]ethyl}piperazine-1-carboxylate]	8.96	
Cc1noc(-c2ccc3nc(Nc4cc(CN5CCN(C(=O)C6CC6)CC5)ccn4)[nH]c3c2C)n1 [Example 54.02, cyclopropyl{4-[(2-{[7-methyl-6-(3-methyl-1,2,4-oxadiazol-5-yl)-1H-benzimidazol-2-yl]amino}pyridin-4-yl)methyl]piperazin-1-yl}methanone]	6.64	
CC(c1ccnc(Nc2nc3ccc(-c4cc(N5CCOCC5)ncn4)cc3[nH]2)c1)N1CCN(C(=O)CC(F)(F)F)CC1 (single isomer, unassigned) [Example 118.03, 3,3,3-trifluoro-1-(4-{(1R or 1S)-1-[2-({6-[6-(morpholin-4-yl)pyrimidin-4-yl]-1H-benzimidazol-2-yl}amino)pyridin-4-yl]ethyl}piperazin-1-yl)propan-1-one]	8.85	
CCOc1cnc(C)cc1-c1ccc2nc(Nc3cc(CN4CCN(C(=O)C5CC5)CC4)ccn3)[nH]c2c1 [Example 09.02, cyclopropyl{4-[(2-{[6-(5-ethoxy-2-methylpyridin-4-yl)-1H-benzimidazol-2-yl]amino}pyridin-4-yl)methyl]piperazin-1-yl}methanone]	6.53	
O=C(C1CC1)N1CCN(Cc2ccnc(Nc3nc4ccc(-c5ccncn5)cc4[nH]3)c2)CC1 [Example 23.01.02, cyclopropyl{4-[(2-{[6-(pyrimidin-4-yl)-1H-benzimidazol-2-yl]amino}pyridin-4-yl)methyl]piperazin-1-yl}methanone]	7.66	
